# Experimental data taken from PubChem BioAssay AID1918994 (Molecular Pharmacology Branch, DTP, NCI, 2023).
# Test system: 292921-168-R-J2-PDC complex spheroid growth
# Assay: Anticancer human tumor 292921-168-R-J2-PDC patient-derived pancreatic carcinoma cell line growth inhibition [AhR]
# Conditions: second compound 3.16 µM; first compound 0.316 µM; hits give low values
# Method in brief: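 Complex tumor spheroids co-cultured with HUVEC and human MSC stroma; AhR antagonists tested in combination with standard-of-care and investigational agents. Top concentration at or near clinical Cmax (else 10 microM), half-log dilutions; growth expressed as percent test/control.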
# 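Also: spheroids exposed to compounds for seven days after three days of growth.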
row,Structure (SMILES),"viability, T/C"
1,COc1cc(C2c3cc4c(cc3C(OC3OC5COC(C)OC5C(O)C3O)C3COC(=O)C23)OCO4)cc(OC)c1O (centres undefined) + Cc1cncc(-c2nc(NCCc3c[nH]c4ccccc34)c3ncn(C(C)C)c3n2)c1,47.5%
2,COc1cccc2c1C(=O)c1c(O)c3c(c(O)c1C2=O)CC(O)(C(=O)CO)CC3OC1CC(N)C(O)C(C)O1 (centres undefined) + Cc1cncc(-c2nc(NCCc3c[nH]c4ccccc34)c3ncn(C(C)C)c3n2)c1,9.58%
3,Nc1ccn(C2OC(CO)C(O)C2(F)F)c(=O)n1 (centres undefined) + Cc1cncc(-c2nc(NCCc3c[nH]c4ccccc34)c3ncn(C(C)C)c3n2)c1,10.2%
4,Nc1ncn(C2CC(O)C(CO)O2)c(=O)n1 (centres undefined) + Cc1cncc(-c2nc(NCCc3c[nH]c4ccccc34)c3ncn(C(C)C)c3n2)c1,64.1%

# Same assay, conditions: second compound 3.16 µM; first compound 1 µM; hits give low values
row,Structure (SMILES),"viability, T/C"
1,COc1cc(C2c3cc4c(cc3C(OC3OC5COC(C)OC5C(O)C3O)C3COC(=O)C23)OCO4)cc(OC)c1O (centres undefined) + Cc1cncc(-c2nc(NCCc3c[nH]c4ccccc34)c3ncn(C(C)C)c3n2)c1,25.9%
2,COc1cccc2c1C(=O)c1c(O)c3c(c(O)c1C2=O)CC(O)(C(=O)CO)CC3OC1CC(N)C(O)C(C)O1 (centres undefined) + Cc1cncc(-c2nc(NCCc3c[nH]c4ccccc34)c3ncn(C(C)C)c3n2)c1,0.2%
3,Nc1ccn(C2OC(CO)C(O)C2(F)F)c(=O)n1 (centres undefined) + Cc1cncc(-c2nc(NCCc3c[nH]c4ccccc34)c3ncn(C(C)C)c3n2)c1,11.6%
4,Nc1ncn(C2CC(O)C(CO)O2)c(=O)n1 (centres undefined) + Cc1cncc(-c2nc(NCCc3c[nH]c4ccccc34)c3ncn(C(C)C)c3n2)c1,62.3%

# Same assay, conditions: second compound 3.16 µM; first compound 3.16 µM; hits give low values
row,Structure (SMILES),"viability, T/C"
1,COc1cc(C2c3cc4c(cc3C(OC3OC5COC(C)OC5C(O)C3O)C3COC(=O)C23)OCO4)cc(OC)c1O (centres undefined) + Cc1cncc(-c2nc(NCCc3c[nH]c4ccccc34)c3ncn(C(C)C)c3n2)c1,21.2%
2,COc1cccc2c1C(=O)c1c(O)c3c(c(O)c1C2=O)CC(O)(C(=O)CO)CC3OC1CC(N)C(O)C(C)O1 (centres undefined) + Cc1cncc(-c2nc(NCCc3c[nH]c4ccccc34)c3ncn(C(C)C)c3n2)c1,1.48%
3,Nc1ccn(C2OC(CO)C(O)C2(F)F)c(=O)n1 (centres undefined) + Cc1cncc(-c2nc(NCCc3c[nH]c4ccccc34)c3ncn(C(C)C)c3n2)c1,11.6%

# Same assay, conditions: second compound 3.16 µM; first compound 10 µM; hits give low values
row,Structure (SMILES),"viability, T/C"
1,COc1cc(C2c3cc4c(cc3C(OC3OC5COC(C)OC5C(O)C3O)C3COC(=O)C23)OCO4)cc(OC)c1O (centres undefined) + Cc1cncc(-c2nc(NCCc3c[nH]c4ccccc34)c3ncn(C(C)C)c3n2)c1,13.5%
2,COc1cccc2c1C(=O)c1c(O)c3c(c(O)c1C2=O)CC(O)(C(=O)CO)CC3OC1CC(N)C(O)C(C)O1 (centres undefined) + Cc1cncc(-c2nc(NCCc3c[nH]c4ccccc34)c3ncn(C(C)C)c3n2)c1,3.82%
3,Nc1ccn(C2OC(CO)C(O)C2(F)F)c(=O)n1 (centres undefined) + Cc1cncc(-c2nc(NCCc3c[nH]c4ccccc34)c3ncn(C(C)C)c3n2)c1,8.76%

# Same assay, conditions: second compound 10 µM; first compound 0.000316 µM; hits give low values
row,Structure (SMILES),"viability, T/C"
1,CC[C@@]1(O)C(=O)OCc2c1cc1n(c2=O)Cc2cc3c(CN(C)C)c(O)ccc3nc2-1 + Cc1cncc(-c2nc(NCCc3c[nH]c4ccccc34)c3ncn(C(C)C)c3n2)c1,52.1%

# Same assay, conditions: second compound 10 µM; first compound 0.001 µM; hits give low values
row,Structure (SMILES),"viability, T/C"
1,CC[C@@]1(O)C(=O)OCc2c1cc1n(c2=O)Cc2cc3c(CN(C)C)c(O)ccc3nc2-1 + Cc1cncc(-c2nc(NCCc3c[nH]c4ccccc34)c3ncn(C(C)C)c3n2)c1,49.1%

# Same assay, conditions: second compound 10 µM; first compound 0.00316 µM; hits give low values
row,Structure (SMILES),"viability, T/C"
1,CC[C@@]1(O)C(=O)OCc2c1cc1n(c2=O)Cc2cc3c(CN(C)C)c(O)ccc3nc2-1 + Cc1cncc(-c2nc(NCCc3c[nH]c4ccccc34)c3ncn(C(C)C)c3n2)c1,50.1%
2,Nc1ncn(C2CC(O)C(CO)O2)c(=O)n1 (centres undefined) + Cc1cncc(-c2nc(NCCc3c[nH]c4ccccc34)c3ncn(C(C)C)c3n2)c1,51.9%

# Same assay, conditions: second compound 10 µM; first compound 0.01 µM; hits give low values
row,Structure (SMILES),"viability, T/C"
1,CC[C@@]1(O)C(=O)OCc2c1cc1n(c2=O)Cc2cc3c(CN(C)C)c(O)ccc3nc2-1 + Cc1cncc(-c2nc(NCCc3c[nH]c4ccccc34)c3ncn(C(C)C)c3n2)c1,37.5%
2,Nc1ncn(C2CC(O)C(CO)O2)c(=O)n1 (centres undefined) + Cc1cncc(-c2nc(NCCc3c[nH]c4ccccc34)c3ncn(C(C)C)c3n2)c1,49%

# Same assay, conditions: second compound 10 µM; first compound 0.0316 µM; hits give low values
row,Structure (SMILES),"viability, T/C"
1,CC[C@@]1(O)C(=O)OCc2c1cc1n(c2=O)Cc2cc3c(CN(C)C)c(O)ccc3nc2-1 + Cc1cncc(-c2nc(NCCc3c[nH]c4ccccc34)c3ncn(C(C)C)c3n2)c1,33.4%
2,COc1cc(C2c3cc4c(cc3C(OC3OC5COC(C)OC5C(O)C3O)C3COC(=O)C23)OCO4)cc(OC)c1O (centres undefined) + Cc1cncc(-c2nc(NCCc3c[nH]c4ccccc34)c3ncn(C(C)C)c3n2)c1,46.5%
3,COc1cccc2c1C(=O)c1c(O)c3c(c(O)c1C2=O)CC(O)(C(=O)CO)CC3OC1CC(N)C(O)C(C)O1 (centres undefined) + Cc1cncc(-c2nc(NCCc3c[nH]c4ccccc34)c3ncn(C(C)C)c3n2)c1,25.3%
4,Nc1ccn(C2OC(CO)C(O)C2(F)F)c(=O)n1 (centres undefined) + Cc1cncc(-c2nc(NCCc3c[nH]c4ccccc34)c3ncn(C(C)C)c3n2)c1,29.8%
5,Nc1ncn(C2CC(O)C(CO)O2)c(=O)n1 (centres undefined) + Cc1cncc(-c2nc(NCCc3c[nH]c4ccccc34)c3ncn(C(C)C)c3n2)c1,50%

# Same assay, conditions: second compound 10 µM; first compound 0.1 µM; hits give low values
row,Structure (SMILES),"viability, T/C"
1,CC[C@@]1(O)C(=O)OCc2c1cc1n(c2=O)Cc2cc3c(CN(C)C)c(O)ccc3nc2-1 + Cc1cncc(-c2nc(NCCc3c[nH]c4ccccc34)c3ncn(C(C)C)c3n2)c1,24.2%
2,COc1cc(C2c3cc4c(cc3C(OC3OC5COC(C)OC5C(O)C3O)C3COC(=O)C23)OCO4)cc(OC)c1O (centres undefined) + Cc1cncc(-c2nc(NCCc3c[nH]c4ccccc34)c3ncn(C(C)C)c3n2)c1,43.6%
3,COc1cccc2c1C(=O)c1c(O)c3c(c(O)c1C2=O)CC(O)(C(=O)CO)CC3OC1CC(N)C(O)C(C)O1 (centres undefined) + Cc1cncc(-c2nc(NCCc3c[nH]c4ccccc34)c3ncn(C(C)C)c3n2)c1,21.3%
4,Nc1ccn(C2OC(CO)C(O)C2(F)F)c(=O)n1 (centres undefined) + Cc1cncc(-c2nc(NCCc3c[nH]c4ccccc34)c3ncn(C(C)C)c3n2)c1,21.1%
5,Nc1ncn(C2CC(O)C(CO)O2)c(=O)n1 (centres undefined) + Cc1cncc(-c2nc(NCCc3c[nH]c4ccccc34)c3ncn(C(C)C)c3n2)c1,47.1%

# Same assay, conditions: second compound 10 µM; first compound 0.316 µM; hits give low values
row,Structure (SMILES),"viability, T/C"
1,COc1cc(C2c3cc4c(cc3C(OC3OC5COC(C)OC5C(O)C3O)C3COC(=O)C23)OCO4)cc(OC)c1O (centres undefined) + Cc1cncc(-c2nc(NCCc3c[nH]c4ccccc34)c3ncn(C(C)C)c3n2)c1,37.2%
2,COc1cccc2c1C(=O)c1c(O)c3c(c(O)c1C2=O)CC(O)(C(=O)CO)CC3OC1CC(N)C(O)C(C)O1 (centres undefined) + Cc1cncc(-c2nc(NCCc3c[nH]c4ccccc34)c3ncn(C(C)C)c3n2)c1,10.8%
3,Nc1ccn(C2OC(CO)C(O)C2(F)F)c(=O)n1 (centres undefined) + Cc1cncc(-c2nc(NCCc3c[nH]c4ccccc34)c3ncn(C(C)C)c3n2)c1,19.3%
4,Nc1ncn(C2CC(O)C(CO)O2)c(=O)n1 (centres undefined) + Cc1cncc(-c2nc(NCCc3c[nH]c4ccccc34)c3ncn(C(C)C)c3n2)c1,43.2%

# Same assay, conditions: second compound 10 µM; first compound 1 µM; hits give low values
row,Structure (SMILES),"viability, T/C"
1,COc1cc(C2c3cc4c(cc3C(OC3OC5COC(C)OC5C(O)C3O)C3COC(=O)C23)OCO4)cc(OC)c1O (centres undefined) + Cc1cncc(-c2nc(NCCc3c[nH]c4ccccc34)c3ncn(C(C)C)c3n2)c1,26.2%
2,COc1cccc2c1C(=O)c1c(O)c3c(c(O)c1C2=O)CC(O)(C(=O)CO)CC3OC1CC(N)C(O)C(C)O1 (centres undefined) + Cc1cncc(-c2nc(NCCc3c[nH]c4ccccc34)c3ncn(C(C)C)c3n2)c1,0.46%
3,Nc1ccn(C2OC(CO)C(O)C2(F)F)c(=O)n1 (centres undefined) + Cc1cncc(-c2nc(NCCc3c[nH]c4ccccc34)c3ncn(C(C)C)c3n2)c1,15.2%
4,Nc1ncn(C2CC(O)C(CO)O2)c(=O)n1 (centres undefined) + Cc1cncc(-c2nc(NCCc3c[nH]c4ccccc34)c3ncn(C(C)C)c3n2)c1,45.5%

# Same assay, conditions: second compound 10 µM; first compound 3.16 µM; hits give low values
row,Structure (SMILES),"viability, T/C"
1,COc1cc(C2c3cc4c(cc3C(OC3OC5COC(C)OC5C(O)C3O)C3COC(=O)C23)OCO4)cc(OC)c1O (centres undefined) + Cc1cncc(-c2nc(NCCc3c[nH]c4ccccc34)c3ncn(C(C)C)c3n2)c1,22.3%
2,COc1cccc2c1C(=O)c1c(O)c3c(c(O)c1C2=O)CC(O)(C(=O)CO)CC3OC1CC(N)C(O)C(C)O1 (centres undefined) + Cc1cncc(-c2nc(NCCc3c[nH]c4ccccc34)c3ncn(C(C)C)c3n2)c1,2.04%
3,Nc1ccn(C2OC(CO)C(O)C2(F)F)c(=O)n1 (centres undefined) + Cc1cncc(-c2nc(NCCc3c[nH]c4ccccc34)c3ncn(C(C)C)c3n2)c1,15.8%

# Same assay, conditions: second compound 10 µM; first compound 10 µM; hits give low values
row,Structure (SMILES),"viability, T/C"
1,COc1cc(C2c3cc4c(cc3C(OC3OC5COC(C)OC5C(O)C3O)C3COC(=O)C23)OCO4)cc(OC)c1O (centres undefined) + Cc1cncc(-c2nc(NCCc3c[nH]c4ccccc34)c3ncn(C(C)C)c3n2)c1,20.2%
2,COc1cccc2c1C(=O)c1c(O)c3c(c(O)c1C2=O)CC(O)(C(=O)CO)CC3OC1CC(N)C(O)C(C)O1 (centres undefined) + Cc1cncc(-c2nc(NCCc3c[nH]c4ccccc34)c3ncn(C(C)C)c3n2)c1,4.23%
3,Nc1ccn(C2OC(CO)C(O)C2(F)F)c(=O)n1 (centres undefined) + Cc1cncc(-c2nc(NCCc3c[nH]c4ccccc34)c3ncn(C(C)C)c3n2)c1,13.4%
